Holding throughout (format): biochemical
One experiment addresses T1, EGFR (Homo sapiens, UniProt P00533).
T1 construct: Kinases are expressed as either kinase domains or full length constructs; made in house
Briefly: Kinase inhibition assay (33P transfer), EGFR. Particulars: Table 2, kinase inhibition class; read-out: EGFR-1. The method, boiled down: (§1)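 GST/His-fusion kinases, E. coli or High Five expressed, affinity purified; 33P-ATP, plate-coated poly(Glu,Tyr) 4:1 or poly(Arg,Ser) 3:1; 0.5% H3PO4 wash, scintillant, LSC.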

In the next experiment the target is T2, Hck-1 (Homo sapiens, UniProt P08631).
T2 construct: Kinases are expressed as either kinase domains or full length constructs; made in house
T2 sequence (P08631 whole entry, the tested form may be a part): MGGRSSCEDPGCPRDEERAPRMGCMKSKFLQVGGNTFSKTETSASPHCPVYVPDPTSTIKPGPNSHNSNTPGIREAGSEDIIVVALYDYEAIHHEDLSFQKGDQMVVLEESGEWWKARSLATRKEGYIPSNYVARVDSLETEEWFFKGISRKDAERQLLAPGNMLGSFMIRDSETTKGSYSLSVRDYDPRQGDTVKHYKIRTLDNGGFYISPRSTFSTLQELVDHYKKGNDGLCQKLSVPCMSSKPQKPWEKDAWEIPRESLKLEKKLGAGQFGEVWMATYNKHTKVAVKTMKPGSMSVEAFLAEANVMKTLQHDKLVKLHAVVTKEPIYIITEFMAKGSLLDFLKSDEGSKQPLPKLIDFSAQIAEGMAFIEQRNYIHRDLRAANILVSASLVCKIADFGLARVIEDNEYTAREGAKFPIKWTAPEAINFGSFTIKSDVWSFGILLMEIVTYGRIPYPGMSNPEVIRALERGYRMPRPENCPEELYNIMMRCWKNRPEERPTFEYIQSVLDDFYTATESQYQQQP
Description: Kinase inhibition assay (33P transfer), Hck. Conditions: Table 6, Hck-1 kinase inhibition class.

A further experiment has as its target T3, Itk (Homo sapiens, UniProt Q08881).
T3 construct: Kinases are expressed as either kinase domains or full length constructs; made in house
T3 sequence (Q08881 1-620): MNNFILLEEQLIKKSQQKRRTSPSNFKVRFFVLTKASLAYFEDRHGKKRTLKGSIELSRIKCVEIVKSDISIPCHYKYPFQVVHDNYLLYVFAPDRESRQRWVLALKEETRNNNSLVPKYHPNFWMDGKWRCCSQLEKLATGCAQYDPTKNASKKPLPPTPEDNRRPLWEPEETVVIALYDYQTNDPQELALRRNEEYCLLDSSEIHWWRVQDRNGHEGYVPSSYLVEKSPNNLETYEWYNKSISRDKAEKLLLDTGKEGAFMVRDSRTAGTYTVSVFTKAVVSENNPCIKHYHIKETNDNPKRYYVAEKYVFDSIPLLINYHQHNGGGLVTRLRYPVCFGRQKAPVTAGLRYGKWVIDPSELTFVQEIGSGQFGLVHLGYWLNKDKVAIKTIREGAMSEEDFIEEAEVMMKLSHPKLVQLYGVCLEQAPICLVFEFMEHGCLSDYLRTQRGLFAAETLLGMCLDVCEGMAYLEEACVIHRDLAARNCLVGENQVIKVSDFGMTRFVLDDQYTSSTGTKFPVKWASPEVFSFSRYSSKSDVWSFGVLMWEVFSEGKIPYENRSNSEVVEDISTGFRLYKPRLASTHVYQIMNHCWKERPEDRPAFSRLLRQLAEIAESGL
Briefly: Kinase inhibition assay (33P transfer), Itk. Conditions: Table 3; read-out: Itk-1. The method, boiled down:
as §1

In the next experiment the target is T4, FGFR1 (Homo sapiens, UniProt P11362).
T4 construct: Kinases are expressed as either kinase domains or full length constructs; made in house
Description: Kinase inhibition assay (33P transfer), FGFR1. Conditions: read-out: FGFR1-1.

Another experiment addresses T5, Flt-1 (Homo sapiens, UniProt P17948).
T5 construct: Kinases are expressed as either kinase domains or full length constructs; made in house
Briefly: Kinase inhibition assay (33P transfer), Flt-1. In outline:
as §1

The next experiment has as its target T6, Src (Homo sapiens, UniProt P12931).
T6 construct: Kinases are expressed as either kinase domains or full length constructs; made in house
Briefly: Kinase inhibition assay (33P transfer), Src. Conditions: Table 6, Src-1 kinase inhibition class. In outline:
as §1

Another experiment has as its target T7, PDGFRB (Homo sapiens, UniProt P09619).
T7 construct: Kinases are expressed as either kinase domains or full length constructs; made in house
Briefly: Kinase inhibition assay (33P transfer), PDGFRB. Conditions: read-out: PDGFRB-1.

A further experiment deals with T8, Lck (Homo sapiens, UniProt P06239).
T8 construct: Kinases are expressed as either kinase domains or full length constructs; made in house
T8 sequence (P06239 whole entry, species assumed, the tested form may be a part): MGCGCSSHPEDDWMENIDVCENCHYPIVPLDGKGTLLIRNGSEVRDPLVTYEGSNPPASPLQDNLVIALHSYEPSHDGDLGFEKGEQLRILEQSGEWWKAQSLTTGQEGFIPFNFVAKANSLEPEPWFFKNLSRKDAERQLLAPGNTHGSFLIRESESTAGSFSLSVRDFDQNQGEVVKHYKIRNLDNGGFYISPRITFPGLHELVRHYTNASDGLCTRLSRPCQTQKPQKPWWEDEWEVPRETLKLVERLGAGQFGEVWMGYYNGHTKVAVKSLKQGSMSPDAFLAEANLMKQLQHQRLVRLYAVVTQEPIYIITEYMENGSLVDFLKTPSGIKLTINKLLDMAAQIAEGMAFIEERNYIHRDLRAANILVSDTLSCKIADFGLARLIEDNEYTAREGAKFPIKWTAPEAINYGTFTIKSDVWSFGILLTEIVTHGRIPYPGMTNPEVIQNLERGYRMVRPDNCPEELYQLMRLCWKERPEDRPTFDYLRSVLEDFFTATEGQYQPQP
Briefly: Kinase inhibition assay (33P transfer), Lck. Conditions: Table 3; read-out: Lck-1. The method, boiled down:
(§2)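 33P-ATP transfer to coated synthetic polymer substrates; acid wash (0.5% H3PO4), scintillant, liquid scintillation count. Enzymes: His- or GST-fusion kinases from E. coli or High Five insect cells.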

The target in another experiment is T9, AKT (Homo sapiens, UniProt Q9Y243).
T9 construct: Kinases are expressed as either kinase domains or full length constructs; made in house
Description: Kinase inhibition assay (33P transfer), AKT. Particulars: Table 2, kinase inhibition class; read-out: AKT3-1. The method, boiled down:
as §2

The next experiment concerns the target T10, c-Met (Homo sapiens, UniProt P08581).
T10 construct: Kinases are expressed as either kinase domains or full length constructs; made in house
Briefly: Kinase inhibition assay (33P transfer), c-Met. Conditions: Table 2, kinase inhibition class; read-out: Met-1. In outline: as §1

Another experiment addresses T11, Kdr (Homo sapiens, UniProt P35968).
T11 construct: Kinases are expressed as either kinase domains or full length constructs; made in house
Description: Kinase inhibition assay (33P transfer), Kdr. Particulars: Table 3; read-out: KDR-1. The method, boiled down: as §2

A further experiment has as its target T12, IGFR-1 (Homo sapiens, UniProt P08069).
T12 construct: Kinases are expressed as either kinase domains or full length constructs; made in house
Briefly: Kinase inhibition assay (33P transfer), IGFR-1. Conditions: Table 2, kinase inhibition class.

The next experiment concerns the target T13, Fyn (Homo sapiens, UniProt P06241).
T13 construct: Kinases are expressed as either kinase domains or full length constructs; made in house
Briefly: Kinase inhibition assay (33P transfer), Fyn. Conditions: read-out: Fyn-1. The method, boiled down: as §1

pIC50: −log10 of the molar value.

T10 sequence (P08581 25-1390): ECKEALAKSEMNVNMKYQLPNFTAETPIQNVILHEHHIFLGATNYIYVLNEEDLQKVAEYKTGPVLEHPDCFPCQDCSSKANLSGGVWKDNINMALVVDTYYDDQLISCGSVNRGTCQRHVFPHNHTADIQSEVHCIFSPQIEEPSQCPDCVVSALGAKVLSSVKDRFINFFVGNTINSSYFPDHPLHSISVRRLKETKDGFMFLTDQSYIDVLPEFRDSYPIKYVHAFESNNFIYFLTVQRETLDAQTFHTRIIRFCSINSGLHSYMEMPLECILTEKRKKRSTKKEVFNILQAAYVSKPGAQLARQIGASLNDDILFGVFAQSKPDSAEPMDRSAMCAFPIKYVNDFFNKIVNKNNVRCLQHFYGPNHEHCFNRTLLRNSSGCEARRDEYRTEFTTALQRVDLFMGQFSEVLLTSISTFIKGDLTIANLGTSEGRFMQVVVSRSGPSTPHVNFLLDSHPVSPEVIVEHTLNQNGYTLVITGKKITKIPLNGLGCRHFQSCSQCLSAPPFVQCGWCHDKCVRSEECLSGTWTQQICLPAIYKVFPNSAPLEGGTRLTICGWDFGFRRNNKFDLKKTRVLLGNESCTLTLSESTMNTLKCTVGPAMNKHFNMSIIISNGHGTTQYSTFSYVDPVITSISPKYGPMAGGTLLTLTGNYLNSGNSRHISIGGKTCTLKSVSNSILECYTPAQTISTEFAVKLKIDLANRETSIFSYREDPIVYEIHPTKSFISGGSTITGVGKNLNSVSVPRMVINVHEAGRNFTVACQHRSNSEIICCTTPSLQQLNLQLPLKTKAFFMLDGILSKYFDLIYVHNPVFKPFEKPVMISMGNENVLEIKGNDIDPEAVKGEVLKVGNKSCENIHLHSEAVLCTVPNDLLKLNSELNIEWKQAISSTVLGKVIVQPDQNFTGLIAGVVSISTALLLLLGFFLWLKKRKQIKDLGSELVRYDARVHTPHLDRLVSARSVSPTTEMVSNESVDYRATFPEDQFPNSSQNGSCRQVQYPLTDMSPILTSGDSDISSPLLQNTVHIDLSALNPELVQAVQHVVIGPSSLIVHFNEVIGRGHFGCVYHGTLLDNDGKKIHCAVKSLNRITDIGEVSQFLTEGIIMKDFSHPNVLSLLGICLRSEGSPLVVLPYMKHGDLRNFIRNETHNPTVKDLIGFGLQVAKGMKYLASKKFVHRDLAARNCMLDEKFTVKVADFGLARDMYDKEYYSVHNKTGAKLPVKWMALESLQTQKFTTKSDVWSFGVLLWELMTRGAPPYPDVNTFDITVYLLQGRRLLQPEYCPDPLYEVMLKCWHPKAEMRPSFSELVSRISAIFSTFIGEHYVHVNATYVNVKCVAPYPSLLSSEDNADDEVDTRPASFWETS
T5 sequence (P17948 27-1338, species assumed): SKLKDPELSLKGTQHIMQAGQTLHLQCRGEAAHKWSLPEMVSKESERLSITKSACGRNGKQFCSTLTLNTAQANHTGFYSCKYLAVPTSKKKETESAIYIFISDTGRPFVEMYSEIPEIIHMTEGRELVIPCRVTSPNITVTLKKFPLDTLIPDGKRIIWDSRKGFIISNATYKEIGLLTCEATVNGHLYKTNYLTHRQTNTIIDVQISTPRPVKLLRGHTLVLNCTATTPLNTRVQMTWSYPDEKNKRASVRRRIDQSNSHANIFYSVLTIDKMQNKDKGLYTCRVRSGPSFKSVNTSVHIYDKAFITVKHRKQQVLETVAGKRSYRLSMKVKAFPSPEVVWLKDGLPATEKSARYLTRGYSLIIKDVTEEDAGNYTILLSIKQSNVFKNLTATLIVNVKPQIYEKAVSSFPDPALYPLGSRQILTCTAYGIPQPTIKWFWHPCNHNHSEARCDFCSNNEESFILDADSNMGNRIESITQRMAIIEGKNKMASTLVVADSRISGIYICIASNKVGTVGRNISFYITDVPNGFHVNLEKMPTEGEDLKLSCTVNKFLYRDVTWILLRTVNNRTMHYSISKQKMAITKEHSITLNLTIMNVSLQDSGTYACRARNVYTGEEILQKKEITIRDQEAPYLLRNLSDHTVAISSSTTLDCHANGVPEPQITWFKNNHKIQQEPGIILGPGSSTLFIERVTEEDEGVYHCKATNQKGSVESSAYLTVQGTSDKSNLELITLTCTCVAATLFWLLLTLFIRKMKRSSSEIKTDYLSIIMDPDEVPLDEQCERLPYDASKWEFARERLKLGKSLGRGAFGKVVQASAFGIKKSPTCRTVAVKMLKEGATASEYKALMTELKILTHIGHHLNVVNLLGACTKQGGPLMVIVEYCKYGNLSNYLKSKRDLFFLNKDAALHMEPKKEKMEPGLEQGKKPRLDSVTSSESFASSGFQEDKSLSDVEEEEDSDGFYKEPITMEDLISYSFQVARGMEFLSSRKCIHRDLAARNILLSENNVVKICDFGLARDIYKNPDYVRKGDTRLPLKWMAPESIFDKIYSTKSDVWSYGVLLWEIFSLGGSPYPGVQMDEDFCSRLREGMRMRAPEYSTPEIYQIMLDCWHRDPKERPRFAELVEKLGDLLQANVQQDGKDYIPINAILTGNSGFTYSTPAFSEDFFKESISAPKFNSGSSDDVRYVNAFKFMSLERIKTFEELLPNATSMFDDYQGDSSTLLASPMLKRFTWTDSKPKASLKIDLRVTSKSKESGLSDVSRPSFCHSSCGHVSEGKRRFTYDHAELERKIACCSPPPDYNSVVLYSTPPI
T11 sequence (P35968 20-1356, species assumed): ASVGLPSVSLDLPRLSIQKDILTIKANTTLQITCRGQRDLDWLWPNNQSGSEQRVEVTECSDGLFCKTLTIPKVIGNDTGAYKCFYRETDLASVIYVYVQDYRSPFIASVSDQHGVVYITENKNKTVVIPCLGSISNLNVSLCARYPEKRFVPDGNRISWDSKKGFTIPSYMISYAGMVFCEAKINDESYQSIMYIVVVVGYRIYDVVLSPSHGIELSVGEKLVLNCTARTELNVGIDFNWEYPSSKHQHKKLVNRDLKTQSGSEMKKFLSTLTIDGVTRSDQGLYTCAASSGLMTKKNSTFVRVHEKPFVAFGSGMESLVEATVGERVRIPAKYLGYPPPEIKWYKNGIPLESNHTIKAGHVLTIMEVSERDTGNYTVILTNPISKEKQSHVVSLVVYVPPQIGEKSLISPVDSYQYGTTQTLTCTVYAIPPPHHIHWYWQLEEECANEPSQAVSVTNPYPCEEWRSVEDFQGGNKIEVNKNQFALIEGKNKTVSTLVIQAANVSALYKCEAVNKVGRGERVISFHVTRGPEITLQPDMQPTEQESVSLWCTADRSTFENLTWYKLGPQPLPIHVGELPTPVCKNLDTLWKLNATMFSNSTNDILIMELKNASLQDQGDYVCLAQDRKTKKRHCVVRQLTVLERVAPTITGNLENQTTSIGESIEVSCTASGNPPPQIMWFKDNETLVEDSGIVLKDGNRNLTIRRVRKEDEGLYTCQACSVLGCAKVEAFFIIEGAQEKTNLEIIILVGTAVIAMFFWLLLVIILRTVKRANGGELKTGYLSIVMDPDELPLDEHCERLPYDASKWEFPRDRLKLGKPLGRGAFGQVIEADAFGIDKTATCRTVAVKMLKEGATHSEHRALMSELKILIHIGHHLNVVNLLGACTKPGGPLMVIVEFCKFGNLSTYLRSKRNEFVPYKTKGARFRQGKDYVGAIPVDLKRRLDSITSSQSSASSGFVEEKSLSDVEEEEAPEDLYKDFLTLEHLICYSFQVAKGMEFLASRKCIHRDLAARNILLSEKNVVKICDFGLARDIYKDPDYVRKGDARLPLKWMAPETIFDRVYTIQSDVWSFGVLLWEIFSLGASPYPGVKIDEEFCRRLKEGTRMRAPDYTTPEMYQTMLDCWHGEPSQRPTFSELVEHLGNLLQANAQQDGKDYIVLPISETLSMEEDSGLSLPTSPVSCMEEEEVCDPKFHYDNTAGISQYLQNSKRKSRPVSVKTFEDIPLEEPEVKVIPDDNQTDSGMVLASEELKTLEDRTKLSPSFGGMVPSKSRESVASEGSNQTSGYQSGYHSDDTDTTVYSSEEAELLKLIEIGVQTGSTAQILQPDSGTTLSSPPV

On to `COc1cc(Nc2ncnc(Nc3ccc(O)cc3)n2)cc(OC)c1OC` [Compound 85], for which the pIC50 on EGFR was 5.19 to 5.97; on Hck-1 it was less than 4.91; on Itk, 5.19 to 5.97; at FGFR1 it was greater than 5.97; against Flt-1, greater than 5.97; on Src, greater than 5.97. In addition, the pIC50 on PDGFRB is greater than 5.97; on Lck, greater than 5.97; at AKT, less than 4.91; at c-Met it was less than 4.91; at Kdr, greater than 5.97; against IGFR-1, 5.19 to 5.97. The pIC50 at Fyn is greater than 5.97.
For `COc1cc(Nc2ncnc(Nc3cc(OC)c(OC)c(OC)c3)n2)cc(OC)c1` [Compound 86], the pIC50 at EGFR is less than 4.96; on Hck-1, less than 4.96; on Itk, less than 4.96; at FGFR1, less than 4.96; on Flt-1 it was less than 4.96; on Src it was 5.24 to 6.01. The pIC50 is 5.24 to 6.01 on PDGFRB; 5.24 to 6.01 on Lck; less than 4.96 at AKT; less than 4.96 on c-Met; greater than 6.01 on Kdr; greater than 6.01 against IGFR-1. Besides, the pIC50 at Fyn was 4.96 to 5.07.
As to `COc1cccc(Nc2ncnc(Nc3cc(OC)c(OC)c(OC)c3)n2)c1` [Compound 87], the pIC50 on EGFR was 5.20 to 5.98; on Hck-1 it was less than 4.93; on Itk, less than 4.93; at FGFR1 it was 5.04 to 5.20; at Flt-1, 4.93 to 5.04; at Src, 5.20 to 5.98. The pIC50 on PDGFRB was greater than 5.98; at Lck it was 5.20 to 5.98; at AKT it was less than 4.93; at c-Met it was less than 4.93; at Kdr, 5.20 to 5.98; against IGFR-1 it was greater than 5.98. For the same molecule, at Fyn, the pIC50 is 5.20 to 5.98.
As for `COc1ccc(Nc2ncnc(Nc3cc(OC)c(OC)c(OC)c3)n2)cc1` [Compound 89], the pIC50 at EGFR was 5.20 to 5.98; against Hck-1, less than 4.93; on Itk, less than 4.93; on FGFR1 it was less than 4.93; against Flt-1, greater than 5.98; against Src, 5.04 to 5.20. Besides, the pIC50 at PDGFRB is greater than 5.98; at Lck it was 5.20 to 5.98; on AKT, less than 4.93; at c-Met, less than 4.93; on Kdr it was greater than 5.98; at IGFR-1, 5.20 to 5.98. At Fyn, the pIC50 is 5.20 to 5.98.
In the case of `COc1ccccc1Nc1ncnc(Nc2cc(OC)c(OC)c(OC)c2)n1` [Compound 90], the pIC50 on EGFR is 5.20 to 5.98; on Hck-1, 5.20 to 5.98; at Itk, 4.93 to 5.04; at FGFR1, 5.20 to 5.98; on Flt-1 it was 5.20 to 5.98; against Src, 5.20 to 5.98. For the same molecule, the pIC50 at PDGFRB was greater than 5.98; on Lck, 5.20 to 5.98; at AKT, less than 4.93; on c-Met, less than 4.93; at Kdr, greater than 5.98; against IGFR-1, 5.20 to 5.98. The pIC50 on Fyn was greater than 5.98.
Regarding `COc1cc(Nc2ncnc(Nc3ccccc3)n2)cc(OC)c1OC` [Compound 91], the pIC50 on EGFR was 5.17 to 5.95; on Hck-1 it was less than 4.90; on Itk it was less than 4.90; at FGFR1, 5.00 to 5.17; against Flt-1, greater than 5.95; at Src, 5.17 to 5.95. For the same molecule, the pIC50 is greater than 5.95 at PDGFRB; 5.17 to 5.95 at Lck; less than 4.90 at AKT; less than 4.90 at c-Met; 5.17 to 5.95 on Kdr; 5.17 to 5.95 at IGFR-1. At Fyn, the pIC50 is greater than 5.95.
With `COc1cc(Nc2ncnc(Nc3ccc(N)cc3)n2)cc(OC)c1OC` [Compound 92], the pIC50 was 5.19 to 5.96 on EGFR; less than 4.91 against Hck-1; less than 4.91 at Itk; 5.02 to 5.19 at FGFR1; 5.02 to 5.19 against Flt-1; 4.91 to 5.02 against Src. In addition, the pIC50 on PDGFRB was 5.19 to 5.96; on Lck, less than 4.91; on AKT, 4.91 to 5.02; at c-Met it was 5.19 to 5.96; on Kdr, 5.19 to 5.96; on IGFR-1 it was 5.19 to 5.96. The pIC50 at Fyn is less than 4.91.
Take `COc1cc(Nc2ncnc(Nc3cc(C)c(O)cc3C)n2)cc(OC)c1OC` [Compound 94]: the pIC50 at EGFR was greater than 6.00; against Hck-1, less than 4.95; at Itk it was less than 4.95; on FGFR1, less than 4.95; against Flt-1 it was 4.95 to 5.06; at Src, 5.22 to 6.00. For the same molecule, the pIC50 on PDGFRB was 5.22 to 6.00; on Lck, greater than 6.00; on AKT, less than 4.95; on c-Met it was less than 4.95; on Kdr, greater than 6.00; against IGFR-1, 5.06 to 5.22. The pIC50 on Fyn is greater than 6.00.
`COc1cc(Nc2ncnc(Nc3cccc4cccnc34)n2)cc(OC)c1OC` [Compound 97]: the pIC50 on EGFR was less than 4.95; on Hck-1, less than 4.95; on Itk, less than 4.95; at FGFR1 it was 5.06 to 5.23; against Flt-1 it was 5.06 to 5.23; at Src it was less than 4.95. Also, the pIC50 on PDGFRB was greater than 6.00; at Lck, 4.95 to 5.06; on AKT it was less than 4.95; at c-Met, less than 4.95; at Kdr, greater than 6.00; against IGFR-1, less than 4.95. The pIC50 at Fyn was 5.06 to 5.23.
Take `COc1cc(Nc2ncnc(Nc3cccc4ccccc34)n2)cc(OC)c1OC` [Compound 98]: the pIC50 at EGFR is greater than 6.00; on Hck-1 it was less than 4.95; at Itk, less than 4.95; at FGFR1, 5.06 to 5.23; on Flt-1 it was less than 4.95; against Src, less than 4.95. The pIC50 on PDGFRB is less than 4.95; at Lck, greater than 6.00; at AKT, less than 4.95; on c-Met it was less than 4.95; at Kdr, greater than 6.00; on IGFR-1 it was less than 4.95. Moreover, the pIC50 at Fyn is 5.23 to 6.00.
As for `COc1cc(Nc2ncnc(Nc3cc(-c4ccccc4)n[nH]3)n2)cc(OC)c1OC` [Compound 102], the pIC50 at EGFR was 5.24 to 6.02; on Hck-1, 5.08 to 5.24; on Itk it was 5.24 to 6.02; at FGFR1, 5.24 to 6.02; against Flt-1, greater than 6.02; at Src, greater than 6.02. In addition, the pIC50 on PDGFRB is 5.08 to 5.24; on Lck, greater than 6.02; at AKT it was less than 4.97; at c-Met, greater than 6.02; on Kdr it was greater than 6.02; on IGFR-1, greater than 6.02. On Fyn, the pIC50 is greater than 6.02.
With `COc1cc(Nc2ncnc(-c3ccnc(NCCCO)c3)n2)cc(OC)c1OC` [Compound 180], the pIC50 on EGFR, against Hck-1, on Itk, on FGFR1, on Flt-1 and at Src was less than 4.96 in each case. Besides, the pIC50 on PDGFRB is 4.96 to 5.07; at Lck, 5.24 to 6.01; at AKT, less than 4.96; at c-Met it was less than 4.96; on Kdr it was 5.24 to 6.01; at IGFR-1, less than 4.96. On Fyn, the pIC50 was 5.07 to 5.24.
For the molecule `COc1cc(Nc2ncnc(-n3c(N)nc4ccccc43)n2)cc(OC)c1OC` [Compound 289], the pIC50 is less than 4.94 on EGFR; less than 4.94 at Hck-1; 5.21 to 5.99 at Itk; greater than 5.99 at FGFR1; greater than 5.99 against Flt-1; 5.21 to 5.99 against Src. In addition, the pIC50 was greater than 5.99 on PDGFRB; greater than 5.99 at Lck; less than 4.94 on AKT; 5.21 to 5.99 at c-Met; greater than 5.99 on Kdr; greater than 5.99 against IGFR-1. Besides, the pIC50 at Fyn was 5.21 to 5.99.

Source of the values: patent US7074789B2, “Kinase inhibitors” (Amgen Inc., priority 1999, dated 2006).
